Assay results as given in PubChem BioAssay (NCI).
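Compound exposure: 48 hours, 5 concentrations, 96-well plates. Here, GI50 denotes the concentration required for 50% inhibition of growth. TGI: concentration producing complete growth inhibition.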

Assays:
Experiment in all cases: DTP human tumour cell line panel, 48 h
786-0 renal = system: 786-0 renal
A498 renal = system: A498 renal
A549 NSCLC = system: A549 NSCLC
ACHN renal = system: ACHN renal
BT-549 breast = system: BT-549 breast
CAKI-1 renal = system: CAKI-1 renal
CCRF-CEM leukemia = system: CCRF-CEM leukemia
COLO 205 colon = system: COLO 205 colon
DU-145 prostate = system: DU-145 prostate
EKVX NSCLC = system: EKVX NSCLC
HCC-2998 colon = system: HCC-2998 colon
HCT-116 colon = system: HCT-116 colon
HCT-15 colon = system: HCT-15 colon
HL-60(TB) leukemia = system: HL-60(TB) leukemia
HOP-62 NSCLC = system: HOP-62 NSCLC
HOP-92 NSCLC = system: HOP-92 NSCLC
HS 578T breast = system: HS 578T breast
HT29 colon = system: HT29 colon
IGROV1 ovarian = system: IGROV1 ovarian
K-562 leukemia = system: K-562 leukemia
KM12 colon = system: KM12 colon
LOX IMVI melanoma = system: LOX IMVI melanoma
M14 melanoma = system: M14 melanoma
MALME-3M melanoma = system: MALME-3M melanoma
MCF7 breast = system: MCF7 breast
MDA-MB-231 breast = system: MDA-MB-231 breast
MDA-MB-435 = system: MDA-MB-435
MOLT-4 leukemia = system: MOLT-4 leukemia
NCI-H226 lung = system: NCI-H226 lung
NCI-H23 lung = system: NCI-H23 lung
NCI-H460 lung = system: NCI-H460 lung
NCI-H522 lung = system: NCI-H522 lung
NCI/ADR-RES ovarian = system: NCI/ADR-RES ovarian
OVCAR-3 ovarian = system: OVCAR-3 ovarian
OVCAR-4 ovarian = system: OVCAR-4 ovarian
OVCAR-5 ovarian = system: OVCAR-5 ovarian
OVCAR-8 ovarian = system: OVCAR-8 ovarian
PC-3 prostate = system: PC-3 prostate
RPMI-8226 leukemia = system: RPMI-8226 leukemia
RXF 393 renal = system: RXF 393 renal
SF-268 CNS = system: SF-268 CNS
SF-295 CNS = system: SF-295 CNS
SF-539 CNS = system: SF-539 CNS
SK-MEL-2 melanoma = system: SK-MEL-2 melanoma
SK-MEL-28 melanoma = system: SK-MEL-28 melanoma
SK-MEL-5 melanoma = system: SK-MEL-5 melanoma
SK-OV-3 ovarian = system: SK-OV-3 ovarian
SN12C renal = system: SN12C renal
SNB-19 CNS = system: SNB-19 CNS
SNB-75 CNS = system: SNB-75 CNS
SR leukemia = system: SR leukemia
SW-620 colon = system: SW-620 colon
T-47D breast = system: T-47D breast
TK-10 renal = system: TK-10 renal
U251 CNS = system: U251 CNS
UACC-257 melanoma = system: UACC-257 melanoma
UACC-62 melanoma = system: UACC-62 melanoma
UO-31 renal = system: UO-31 renal

In the case of `CC1(C)C2CCC13C(=O)C1OC3(C2)C2C(=O)c3c(ccc4c3ccc3ccccc34)C(=O)C12` (stereo not given), the GI50 (786-0 renal) is reported as over 36.3 µM, the TGI (786-0 renal) is reported as over 70.3 µM and the GI50 (A498 renal) is reported as over 100 µM. It also gave a TGI (A498 renal) of over 100 µM, a GI50 (A549 NSCLC) of over 60.1 µM and a TGI (A549 NSCLC) of over 100 µM. The GI50 (ACHN renal) was 57.4 µM, the TGI (ACHN renal) was over 100 µM and the GI50 (BT-549 breast) was over 80.3 µM. The TGI (BT-549 breast) was over 100 µM, the GI50 (CAKI-1 renal) was 20 µM and the TGI (CAKI-1 renal) was 80.1 µM. The GI50 (CCRF-CEM leukemia) was 21.5 µM, the TGI (CCRF-CEM leukemia) was over 62.9 µM and the GI50 (COLO 205 colon) was over 54 µM. The TGI (COLO 205 colon) was over 100 µM, the GI50 (DU-145 prostate) was over 100 µM and the TGI (DU-145 prostate) was over 100 µM. It also gave a GI50 (EKVX NSCLC) of over 66.3 µM, a TGI (EKVX NSCLC) of over 100 µM and a GI50 (HCC-2998 colon) of over 100 µM. For the same compound, the TGI (HCC-2998 colon) was over 100 µM, the GI50 (HCT-116 colon) was over 36.9 µM and the TGI (HCT-116 colon) was over 57 µM. The GI50 (HCT-15 colon) was over 53.5 µM, the TGI (HCT-15 colon) was over 100 µM and the TGI (HL-60(TB) leukemia) was 11.1 µM. For the same compound, the GI50 (HOP-62 NSCLC) was over 100 µM, the TGI (HOP-62 NSCLC) was over 100 µM and the GI50 (HOP-92 NSCLC) was over 100 µM. For the same compound, the TGI (HOP-92 NSCLC) was over 100 µM, the GI50 (HS 578T breast) was over 56.1 µM and the TGI (HS 578T breast) was over 100 µM. It also gave a GI50 (HT29 colon) of over 64.6 µM, a TGI (HT29 colon) of over 100 µM and a GI50 (IGROV1 ovarian) of over 100 µM. For the same compound, the TGI (IGROV1 ovarian) was over 100 µM, the GI50 (K-562 leukemia) was 1120 nM and the TGI (K-562 leukemia) was 82.1 µM. It also gave a GI50 (KM12 colon) of 57.6 µM, a TGI (KM12 colon) of over 100 µM and a GI50 (LOX IMVI melanoma) of 50.9 µM. For the same compound, the TGI (LOX IMVI melanoma) was over 100 µM, the GI50 (M14 melanoma) was over 100 µM and the TGI (M14 melanoma) was over 100 µM. The GI50 (MALME-3M melanoma) was 25.2 µM, the TGI (MALME-3M melanoma) was over 89.2 µM and the GI50 (MCF7 breast) was 31.6 µM. For the same compound, the TGI (MCF7 breast) was over 75.9 µM, the GI50 (MDA-MB-231 breast) was over 37.2 µM and the TGI (MDA-MB-231 breast) was over 53.2 µM. It also gave a GI50 (MDA-MB-435) of over 62.2 µM, a TGI (MDA-MB-435) of over 100 µM and a GI50 (MOLT-4 leukemia) of 1100 nM. For the same compound, the TGI (MOLT-4 leukemia) was 10.6 µM, the GI50 (NCI-H226 lung) was over 100 µM and the TGI (NCI-H226 lung) was over 100 µM. The GI50 (NCI-H23 lung) was over 48.4 µM, the TGI (NCI-H23 lung) was over 81.5 µM and the GI50 (NCI-H460 lung) was 57.3 µM. It also gave a TGI (NCI-H460 lung) of over 100 µM, a GI50 (NCI-H522 lung) of over 62.1 µM and a TGI (NCI-H522 lung) of over 100 µM. The GI50 (NCI/ADR-RES ovarian) was over 46.7 µM, the TGI (NCI/ADR-RES ovarian) was over 94.8 µM and the GI50 (OVCAR-3 ovarian) was 40.7 µM. For the same compound, the TGI (OVCAR-3 ovarian) was over 100 µM, the GI50 (OVCAR-4 ovarian) was 56.1 µM and the TGI (OVCAR-4 ovarian) was over 100 µM. It also gave a GI50 (OVCAR-5 ovarian) of over 100 µM, a TGI (OVCAR-5 ovarian) of over 100 µM and a GI50 (OVCAR-8 ovarian) of over 61.1 µM. For the same compound, the TGI (OVCAR-8 ovarian) was over 100 µM, the GI50 (PC-3 prostate) was over 66.5 µM and the TGI (PC-3 prostate) was over 100 µM. It also gave a GI50 (RPMI-8226 leukemia) of 19.2 µM, a TGI (RPMI-8226 leukemia) of over 60 µM and a GI50 (RXF 393 renal) of 84 µM. For the same compound, the TGI (RXF 393 renal) was over 100 µM, the GI50 (SF-268 CNS) was 70.5 µM and the TGI (SF-268 CNS) was over 100 µM. The GI50 (SF-295 CNS) was 13.2 µM, the TGI (SF-295 CNS) was 92.6 µM and the GI50 (SF-539 CNS) was over 64.4 µM. It also gave a TGI (SF-539 CNS) of over 100 µM, a GI50 (SK-MEL-2 melanoma) of over 100 µM and a TGI (SK-MEL-2 melanoma) of over 100 µM. It also gave a GI50 (SK-MEL-28 melanoma) of over 84.3 µM, a TGI (SK-MEL-28 melanoma) of over 100 µM and a GI50 (SK-MEL-5 melanoma) of 54.3 µM. The TGI (SK-MEL-5 melanoma) was over 100 µM, the GI50 (SK-OV-3 ovarian) was over 100 µM and the TGI (SK-OV-3 ovarian) was over 100 µM. It also gave a GI50 (SN12C renal) of over 73.3 µM, a TGI (SN12C renal) of over 100 µM and a GI50 (SNB-19 CNS) of over 43.5 µM. The TGI (SNB-19 CNS) was over 100 µM, the GI50 (SNB-75 CNS) was over 65.8 µM and the TGI (SNB-75 CNS) was over 100 µM. The GI50 (SR leukemia) was 1860 nM, the TGI (SR leukemia) was 51 µM and the GI50 (SW-620 colon) was 56.5 µM. The TGI (SW-620 colon) was over 100 µM, the GI50 (T-47D breast) was 48 µM and the TGI (T-47D breast) was over 100 µM. The GI50 (TK-10 renal) was over 87.5 µM, the TGI (TK-10 renal) was over 100 µM and the GI50 (U251 CNS) was over 64.8 µM. It also gave a TGI (U251 CNS) of over 100 µM, a GI50 (UACC-257 melanoma) of over 29.2 µM and a TGI (UACC-257 melanoma) of over 70.5 µM. It also gave a GI50 (UACC-62 melanoma) of over 100 µM, a TGI (UACC-62 melanoma) of over 100 µM and a GI50 (UO-31 renal) of over 100 µM. The TGI (UO-31 renal) was over 100 µM.
